Columns and labels:
Hep3B [1] = assay: WST-8 cell viability assay, hepatocellular carcinoma cell line; assay type: cell-based; settings: 24, 48 and 72 hours
Description: (§1) Specifically, the WST-8 assay to check the cell viability of HepG2 and Hep3B, which are hepatocellular carcinoma cell lines shown in FIGS. 7A-7C and 8A-8C, was performed as follows. HepG2 and Hep3B were each seeded in 96-well plates at the density of 5×10^3 cells/well and cultured for 24 hours. Then, Sorafenib and OPT-0139 were diluted stepwise at a twofold concentration and then treated to the plates at different concentrations, followed by culture for 24, 48, and 72 hours. […] of WST-8 solution was added to each well of the plate, and the absorbance was measured with a microplate reader using a 450 nm optical filter to measure the formazan produced by the reducing factors in living cells.
(§2) Therefore, the number of living cells could be measured by measuring absorbance.

HepG2 [2] = assay: as above; assay type: cell-based; settings: 24, 48 and 72 hours
Description: as §1, §2

Hep3B [3] = assay: Clonogenic assay; assay type: cell-based; settings: 2.5 and 5 μM, 10 days
Description: (§3) HepG2 and Hep3B were each seeded in 12-well plates at the density of 3×10^3 cells/well and cultured for 24 hours. Then, Sorafenib and the compound of Example 1 were treated thereto at 2.5 and 5 μM each and cultured for 10 days. Upon completion of the culture, the cells were washed with PBS, fixed with 37% formaldehyde, and stained with 0.01% crystal violet. After staining, the cells were washed with distilled water and the colonies of stained cells were photographed.

HepG2 [4] = assay: Clonogenic assay; assay type: cell-based; settings: 2.5 and 5 μM, 10 days
Description: as §3

Huh-7 = assay: Cell viability alone and in combination with sorafenib; assay type: cell-based, Human; settings: 1 μM alone
Description: (§4) Human liver cancer cell lines (SK Hep1 and Huh-7) were treated with control (no treatment), 0.1 μM of the compound of Example 1, 1 μM of sorafenib, and 0.1 μM of the compound of Example 1/1 μM of sorafenib, and the cell viability of SK Hep1 and Huh-7 was confirmed.

SK Hep1 = assay: as above; assay type: cell-based, Human; settings: 1 μM alone
Description: as §4

OVCAR-3 = assay: Cell viability alone and in combination with cisplatin; assay type: cell-based, Human; settings: 1 μM alone
Description: (§5) Human ovarian cancer cell lines (SKOV-3 and OVCAR-3) were treated with control (no treatment), 0.1 μM of the compound of Example 1, 1 μM of cisplatin, and 0.1 μM of the compound of Example 1/1 μM of cisplatin, and the cell viability of SKOV-3 and OVCAR-3 was confirmed.

SKOV-3 = assay: as above; assay type: cell-based, Human; settings: 1 μM alone
Description: as §5

SMILES	cell viability (Hep3B [1])	cell viability (HepG2 [2])	number of colonies, treated vs not treated (Hep3B [3])	number of colonies, treated vs not treated (HepG2 [4])	cell viability (Huh-7)	cell viability (SK Hep1)	cell viability (OVCAR-3)	cell viability (SKOV-3)
CNC(=O)c1cc(Oc2ccc(NC(=O)Nc3ccc(Cl)c(C(F)(F)F)c3)cc2)ccn1 [Sorafenib, reference compound]	decreased the cell viability dose and time dependently	decreased the cell viability dose and time dependently	clear difference in the number of colonies	clear difference in the number of colonies	suppressed	suppressed	–	–
N.N.[Cl][Pt][Cl] [cisplatin, reference compound]	–	–	–	–	–	–	suppressed	suppressed

Reference: patent US12605382B2, “Pharmaceutical composition for preventing, alleviating, or treating cancer containing 2,6-dichloro-4-(4-(4-hydroxycyclohexylamino)-7H- pyrrolo[2,3-d]pyrimidin-5-yl)phenol as active ingredient” (JBKLAB CO., LTD., priority 2021, dated 2026)
